Test results taken from patent US20230295234A1, “ANTIMICROBIAL PEPTIDOMIMETICS” (SPEXIS AG, priority 2020, published 2023).
Where two headings read alike, the source gives them in different places. Peptide text beside a SMILES is read from it.

How the values were obtained:
[1] = test system: Escherichia coli ATCC 25922
Summary of the method: (§1)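 Activity is measured against peptides serially diluted two-fold in water with 0.002% final Polysorbate 80. The cells are in cation-adjusted MHII broth at roughly 5×10^5 CFU/mL, prepared from a 0.5 McFarland suspension in 0.85% NaCl.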

[2] = test system: Escherichia coli MCR-1 Af 45; conditions: Mueller-Hinton broth II, 18-20 hours at 35° C.
Summary of the method: as §1

[3] = test system: Klebsiella pneumoniae SSI3010
Summary of the method: as §1

[4] = test system: human red blood cells (hRBC); assay: Hemolysis of human red blood cells; format: cell-based
Summary of the method: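 PBS-washed human red blood cells (20% v/v) were incubated with peptide at 200 μg/mL for 1 h at 37 °C with shaking. Supernatant OD was read at 540 nm after 8-fold dilution. Hemolysis is expressed as percent of the water control.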

[5] = Mueller-Hinton broth II, 18-20 hours at 35° C.

Structure (SMILES) | Escherichia coli ATCC 25922 MIC ([1]; ATCC 25922) | Escherichia coli MCR-1 Af 45 MIC [2] | Klebsiella pneumoniae SSI3010 MIC ([3]; SSI3010) | Hemolysis at 0.2 g/L ([4]; red cells of human, 1 h) | Escherichia coli ATCC 25922 MIC [1, 5] | Klebsiella pneumoniae SSI3010 MIC [3, 5] | Hemolysis at 0.2 g/L ([4]; 20% hRBC, 1 h at 37° C.)
CC[C@H](C)[C@H](NC(=O)[C@@H](NC(=O)[C@@H]1C[C@@H](N)CN1C(=O)[C@@H](N)C(C)C)[C@@H](C)CC)C(=O)N[C@@H](Cc1ccc(O)cc1)C(=O)N[C@H]1CSSC[C@@H](C(=O)N[C@@H](CCN)C(=O)N[C@@H](CCCNC(=N)N)C(=O)N[C@@H](Cc2ccc(O)cc2)C(=O)O)NC(=O)[C@H](CCCCN)NC(=O)[C@@H](CCN)NC(=O)[C@H]([C@@H](C)O)NC(=O)[C@H](CCN)NC(=O)[C@H](CCCNC(=N)N)NC(=O)[C@H](CC(N)=O)NC1=O [Example 142] (HELM PEPTIDE1{V.[N[C@@H]1C[C@@H](C(=O)[*:2])N([*:1])C1].I.I.Y.C.N.R.[Dab].T.[NCC[C@@H](N[*:1])C(=O)[*:2]].K.C.[Dab].R.Y}$PEPTIDE1,PEPTIDE1,6:R3-13:R3$$$V2.0) | 0.125 µg/mL | 0.0625 µg/mL | 0.0625 µg/mL | 0% | – | – | –
CC[C@H](C)[C@H](NC(=O)[C@@H](NC(=O)[C@@H]1C[C@@H](O)CN1C(=O)[C@@H](N)C(C)C)[C@@H](C)CC)C(=O)N[C@@H](Cc1ccc(O)cc1)C(=O)N[C@H]1CSSC[C@@H](C(=O)N[C@@H](CCN)C(=O)N[C@@H](CCCNC(=N)N)C(=O)N[C@@H](Cc2ccc(O)cc2)C(=O)O)NC(=O)[C@H](CCCCN)NC(=O)[C@@H](CCN)NC(=O)[C@H]([C@@H](C)O)NC(=O)[C@H](CCN)NC(=O)[C@H](CCCNC(=N)N)NC(=O)[C@H](CC(N)=O)NC1=O [Example 143] (HELM PEPTIDE1{V.[Hyp].I.I.Y.C.N.R.[Dab].T.[NCC[C@@H](N[*:1])C(=O)[*:2]].K.C.[Dab].R.Y}$PEPTIDE1,PEPTIDE1,6:R3-13:R3$$$V2.0) | 0.0625 µg/mL | 0.03125 µg/mL | 0.125 µg/mL | 0% | – | – | –
CC[C@H](C)[C@H](NC(=O)[C@@H]1CCCN1C(=O)[C@@H](N)C(C)C)C(=O)N[C@H](C(=O)N[C@@H](Cc1ccc(O)cc1)C(=O)N[C@H]1CSSC[C@@H](C(=O)N[C@@H](CCN)C(=O)N[C@@H](CCCNC(=N)N)C(=O)N[C@@H](Cc2ccc(O)cc2)C(=O)O)NC(=O)[C@H](CCCCN)NC(=O)[C@@H](CCN)NC(=O)[C@H]([C@@H](C)O)NC(=O)[C@H](CCN)NC(=O)[C@H](CCCNC(=N)N)NC(=O)[C@H](CC(N)=O)NC1=O)[C@@H](C)O [Example 144] (HELM PEPTIDE1{V.P.I.T.Y.C.N.R.[Dab].T.[NCC[C@@H](N[*:1])C(=O)[*:2]].K.C.[Dab].R.Y}$PEPTIDE1,PEPTIDE1,6:R3-13:R3$$$V2.0) | 0.0625 µg/mL | 0.25 µg/mL | 0.125 µg/mL | 0% | – | – | –
CC[C@H](C)[C@H](NC(=O)[C@@H]1CCCN1C(=O)[C@@H](N)C(C)C)C(=O)N[C@@H](Cc1ccccc1)C(=O)N[C@@H](Cc1ccc(O)cc1)C(=O)N[C@H]1CSSC[C@@H](C(=O)N[C@@H](CCN)C(=O)N[C@@H](CCCNC(=N)N)C(=O)N[C@@H](Cc2ccc(O)cc2)C(=O)O)NC(=O)[C@H](CCCCN)NC(=O)[C@@H](CCN)NC(=O)[C@H]([C@@H](C)O)NC(=O)[C@H](CCN)NC(=O)[C@H](CCCNC(=N)N)NC(=O)[C@H](CC(N)=O)NC1=O [Example 145] (HELM PEPTIDE1{V.P.I.F.Y.C.N.R.[Dab].T.[NCC[C@@H](N[*:1])C(=O)[*:2]].K.C.[Dab].R.Y}$PEPTIDE1,PEPTIDE1,6:R3-13:R3$$$V2.0) | 0.0625 µg/mL | 0.0625 µg/mL | 0.125 µg/mL | 0% | – | – | –
CC[C@H](C)[C@H](NC(=O)[C@@H](NC(=O)[C@@H]1CCCN1C(=O)[C@@H](O)C(C)C)[C@@H](C)CC)C(=O)N[C@@H](Cc1ccc(O)cc1)C(=O)N[C@H]1CSSC[C@@H](C(=O)N[C@@H](CCN)C(=O)N[C@@H](CCCNC(=N)N)C(=O)N[C@@H](Cc2ccc(O)cc2)C(=O)O)NC(=O)[C@H](CCCCN)NC(=O)[C@@H](CCN)NC(=O)[C@H]([C@@H](C)O)NC(=O)[C@H](CCN)NC(=O)[C@H](CCCNC(=N)N)NC(=O)[C@H](CC(N)=O)NC1=O [Example 146] (HELM PEPTIDE1{[CC(C)[C@H](O)C(=O)[*:2]].P.I.I.Y.C.N.R.[Dab].T.[NCC[C@@H](N[*:1])C(=O)[*:2]].K.C.[Dab].R.Y}$PEPTIDE1,PEPTIDE1,6:R3-13:R3$$$V2.0) | 0.5 µg/mL | 0.5 µg/mL | 0.5 µg/mL | 0% | – | – | –
CC[C@H](C)[C@H](NC(=O)[C@@H](NC(=O)[C@@H]1C[C@@H](O)CN1C(=O)[C@@H](N)C(C)C)[C@@H](C)CC)C(=O)N[C@@H](Cc1ccc(O)cc1)C(=O)N[C@@H]1C(=O)N[C@@H](CC(N)=O)C(=O)N[C@@H](CCCNC(=N)N)C(=O)N[C@@H](CCN)C(=O)N[C@@H]([C@@H](C)O)C(=O)N[C@H](CCN)C(=O)N[C@@H](CCCCN)C(=O)N[C@H](C(=O)N[C@@H](CCN)C(=O)N[C@@H](CCCNC(=N)N)C(=O)N[C@@H](Cc2ccc(O)cc2)C(=O)O)CSSC1(C)C [Example 147] (HELM PEPTIDE1{V.[Hyp].I.I.Y.[Pen].N.R.[Dab].T.[NCC[C@@H](N[*:1])C(=O)[*:2]].K.C.[Dab].R.Y}$PEPTIDE1,PEPTIDE1,6:R3-13:R3$$$V2.0) | – | 0.0625 µg/mL | – | – | 0.125 µg/mL | 0.25 µg/mL | 0%
CC[C@H](C)[C@H](NC(=O)[C@@H]1C[C@@H](O)CN1C(=O)[C@@H](N)C(C)C)C(=O)N[C@H](C(=O)N[C@@H](Cc1ccc(O)cc1)C(=O)N[C@@H]1C(=O)N[C@@H](CC(N)=O)C(=O)N[C@@H](CCCNC(=N)N)C(=O)N[C@@H](CCN)C(=O)N[C@@H]([C@@H](C)O)C(=O)N[C@H](CCN)C(=O)N[C@@H](CCCCN)C(=O)N[C@H](C(=O)N[C@@H](CCN)C(=O)N[C@@H](CCCNC(=N)N)C(=O)N[C@@H](Cc2ccc(O)cc2)C(=O)O)CSSC1(C)C)[C@@H](C)O [Example 148] (HELM PEPTIDE1{V.[Hyp].I.T.Y.[Pen].N.R.[Dab].T.[NCC[C@@H](N[*:1])C(=O)[*:2]].K.C.[Dab].R.Y}$PEPTIDE1,PEPTIDE1,6:R3-13:R3$$$V2.0) | ≤0.125 µg/mL | 0.125 µg/mL | 0.25 µg/mL | 0% | – | – | –
CC[C@H](C)[C@H](NC(=O)[C@@H]1C[C@@H](O)CN1C(=O)[C@@H](N)C(C)C)C(=O)N[C@H](C(=O)N[C@@H](Cc1ccc(O)cc1)C(=O)N[C@@H]1C(=O)N[C@@H](CC(N)=O)C(=O)N[C@@H](CCCNC(=N)N)C(=O)N[C@@H](CCN)C(=O)N[C@@H]([C@@H](C)O)C(=O)N[C@H](CN)C(=O)N[C@@H](CCCCN)C(=O)N[C@H](C(=O)N[C@@H](CCN)C(=O)N[C@@H](CCCNC(=N)N)C(=O)N[C@@H](Cc2ccc(O)cc2)C(=O)O)CSSC1(C)C)[C@@H](C)O [Example 149] (HELM PEPTIDE1{V.[Hyp].I.T.Y.[Pen].N.R.[Dab].T.[NC[C@@H](N[*:1])C(=O)[*:2]].K.C.[Dab].R.Y}$PEPTIDE1,PEPTIDE1,6:R3-13:R3$$$V2.0) | 0.25 µg/mL | 0.25 µg/mL | 0.5 µg/mL | 0% | – | – | –
